Assay results reported in patent US8916599B2, “1H-benz imidazole-5-carboxamides as anti-inflammatory agents” (Orexo AB, priority 2008, dated 2014).

molecular target: T1, recombinant human mPGES-1 (Homo sapiens, UniProt O14684); assay: mPGES-1 inhibition test (microsomes, PGH2 substrate, HTRF detection of PGE2); format: biochemical; settings: not given
T1 construct: made in house; host or cells: Rosetta E. coli (microsomal/membrane fraction)
T1 sequence (O14684 1-152): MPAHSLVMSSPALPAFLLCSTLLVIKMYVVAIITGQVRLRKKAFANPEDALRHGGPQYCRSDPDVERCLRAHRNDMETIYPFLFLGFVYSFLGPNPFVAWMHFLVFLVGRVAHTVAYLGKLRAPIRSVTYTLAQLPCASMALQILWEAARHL
Procedure, shortened: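 E. coli microsomal enzyme, 0.1 M KPi pH 7.4 + 2.5 mM GSH; cpd (DMSO) 25 min RT; PGH2 1 min; acidic FeCl2 stop. Dilute 750-fold, HTRF (d2/Eu-cryptate anti-PGE2, overnight 4 °C), 665/620 ratio vs PGE2 standard curve.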

| SMILES | inhibition at 10 µM |
| --- | --- |
| COc1cc2[nH]c(Nc3c(Cl)cccc3Cl)nc2cc1C(=O)NCC(F)(F)C(F)(F)C(F)(F)F [Example 632, N-(2,2,3,3,4,4,4-heptafluoro-butyl)-2-(2,6-dichlorophenylamino)-6-methoxy-1H-benzimidazole-5-carboxamide] | 99% |

same assay, conditions: inhibition of mPGES-1 at 1 μM (marked in cell)

| inhibition at 1 µM | SMILES |
| --- | --- |
| 100% | CC(C)Oc1cc2c(cc1C(=O)NC1CCC3(CC1)CC3)nc(Nc1c(Cl)ccc(Cl)c1F)n2C [Example 648, 2-(3,6-Dichloro-2-fluoro-phenylamino)-6-isopropoxy-N-(spiro[2.5]oct-6-yl)-1-methyl-1H-benzimidazole-5-carboxamide] |
| 97% | COc1cc2c(cc1C(=O)N[C@H]1CC[C@H](C(F)(F)F)CC1)nc(Nc1c(Cl)ccc(C)c1F)n2C [Example 647, 2-(6-Chloro-2-fluoro-3-methyl-phenylamino)-6-methoxy-N-(trans-4-trifluoromethyl-cyclohex-1-yl)-1-methyl-1H-benzimidazole-5-carboxamide] |

same assay, conditions: inhibition of mPGES-1 at 10 μM

| SMILES | inhibition at 10 µM |
| --- | --- |
| CCCCOc1cccc(NC(=O)c2ccc3c(c2)nc(Nc2c(Cl)cccc2Cl)n3C)n1 [Example 349, 2-(2,6-Dichloro-phenylamino)-1-methyl-1-H-benzimidazole-5-carboxylic acid (6-butoxy-pyridin-2-yl)-amide] | 100% |
| CC(C)NC(=O)c1cc(Br)c2c(c1)nc(Nc1c(Cl)cccc1Cl)n2C [Example 353, 7-Bromo-2-(2,6-dichloro-phenylamino)-1-methyl-1H-benzimidazole-5-carboxylic acid isopropylamide] | 75% |
| CCCC[C@@H](C)NC(=O)c1cc2nc(Nc3c(Cl)cccc3Cl)n(C)c2cc1F [Example 416, (R)-2-(2,6-Dichlorophenylamino)-6-fluoro-N-(hexan-2-yl)-1-methyl-1H-benzimidazole-5-carboxamide] | 100% |
| O=C(N[C@H]1CC[C@H](C(F)(F)F)CC1)c1cc2nc(Nc3c(Cl)cccc3Cl)[nH]c2cc1F [Example 155, 2-(2,6-Dichloro-phenylamino)-6-fluoro-1H-benzimidazole-5-carboxylic acid (trans-4-trifluoromethyl-cyclohexyl)-amide] | 100% |
| CNCCCn1c(Nc2c(Cl)cccc2Cl)nc2cc(C(=O)Nc3cc(Cl)ccn3)ccc21 [Example 266, 2-(2,6-Dichloro-phenylamino)-1-(3-methylamino-propyl)-1H-benzimidazole-5-carboxylic acid (4-chloro-pyridin-2-yl)-amide] | 100% |
| C[C@@H]1CCC[C@@H](NC(=O)c2cc3nc(Nc4c(Cl)cccc4Cl)n(C)c3cc2F)C1 [Example 442, 2-(2,6-Dichlorophenylamino)-6-fluoro-1-methyl-N-((1R,3R)-3-methylcyclohexyl)-1H-benzimidazole-5-carboxamide] | 99% |
| O=C(NCc1ccccn1)c1ccc2[nH]c(Nc3c(Cl)cccc3Cl)nc2c1 [Example 235, 2-(2,6-Dichloro-phenylamino)-1H-benzimidazole-5-carboxylic acid (pyridin-2-ylmethyl)-amide] | 79% |
| Cn1c(Nc2c(F)cccc2Cl)nc2cc(C(=O)NC3CCC4(CC3)CC4)ccc21 [Example 441, 2-(2-Chloro-6-fluorophenylamino)-1-methyl-N-(spiro[2.5]octan-6-yl)-1H-benzimidazole-5-carboxamide] | 97% |
| Cn1c(Nc2c(Cl)cccc2Cl)nc2cc(C(=O)NCc3ncccc3C(F)(F)F)ccc21 [Example 244, 2-(2,6-Dichloro-phenylamino)-1-methyl-1H-benzimidazole-5-carboxylic acid (3-trifluoromethyl-pyridin-2-ylmethyl)-amide] | 96% |
| O=C(Nc1ccc(Br)c(F)c1)c1cc2nc(Nc3c(Cl)cccc3Cl)[nH]c2cc1F [Example 121, 2-(2,6-Dichloro-phenylamino)-6-fluoro-1H-benzimidazol-5-carboxylic acid (4-bromo-3-fluoro-phenyl)-amide] | 95% |
| Cn1c(Nc2c(F)cccc2F)nc2cc(C(=O)NC3CCC(C)(C)CC3)ccc21 [Example 172, 2-(2,6-Difluoro-phenylamino)-1-methyl-1H-benzimidazole-5-carboxylic acid (4,4-dimethyl-cyclohexyl)-amide] | 97% |
| CC1CC(NC(=O)c2ccc3c(c2)nc(Nc2c(Cl)cccc2Cl)n3C)CC(C)(C)C1 (centres unmarked) [Example 241, 2-(2,6-Dichloro-phenylamino)-1-methyl-1H-benzimidazole-5-carboxylic acid (3,3,5-trimethyl-cyclohexyl)-amide] | 100% |
| CS(=O)(=O)NCCCn1c(Nc2c(Cl)cccc2Cl)nc2cc(C(=O)Nc3cc(Cl)ccn3)ccc21 [Example 206, 2-(2,6-Dichloro-phenylamino)-1-(3-methanesulfonylamino-propyl)-1H-benzimidazole-5-carboxylic acid (4-chloro-pyridin-2-yl)-amide] | 100% |
| Cn1c(Nc2c(Cl)cccc2Cl)nc2cc(C(=O)NC3CCOCC3)ccc21 [Example 252, 2-(2,6-Dichloro-phenylamino)-1-methyl-1H-benzimidazole-5-carboxylic acid (tetrahydro-pyran-4-yl)-amide] | 68% |
| Cc1cccc(Cl)c1Nc1nc2cc(C(=O)Nc3ccc(Br)cc3)ccc2n1C [Example 382, N-(4-Bromophenyl)-2-(2-chloro-6-methylphenylamino)-1-methyl-1H-benzimidazole-5-carboxamide] | 100% |
| Cn1c(Nc2cc(C(F)(F)F)ccc2Cl)nc2cc(C(=O)Nc3ccc(Br)cc3)ccc21 [Example 423, N-(4-Bromophenyl)-2-(2-chloro-5-trifluoromethyl-phenylamino)-1-methyl-1H-benzimidazole-5-carboxamide] | 100% |
| O=C(NC1CCCCC1)c1ccc2nc(Nc3c(Cl)cccc3Cl)[nH]c2c1 [Example 137, 2-(2,6-Dichloro-phenylamino)-3H-benzimidazole-5-carboxylic acid cyclohexylamide] | 100% |

Now from value to molecule:

| inhibition at 10 µM | SMILES |
| --- | --- |
| 99% | CCCC[C@H](C)NC(=O)c1cc2nc(Nc3c(Cl)cccc3Cl)n(C)c2cc1F [Example 450, (S)-2-(2,6-Dichlorophenylamino)-6-fluoro-N-(hexan-2-yl)-1-methyl-1H-benzimidazole-5-carboxamide] |
| 56% | CNC(=O)c1ccc(Cl)c(Nc2nc3cc(C(=O)Nc4ccc(Br)cc4)ccc3n2C)c1 [Example 574, N-(4-Bromophenyl)-2-(2-chloro-5-(methylcarbamoyl)-phenylamino)-1-methyl-1H-benzimidazole-5-carboxamide] |
| 100% | O=C(N[C@H]1CC[C@H](C(F)(F)F)CC1)c1cc2nc(Nc3c(Cl)ccc(Cl)c3F)[nH]c2cc1F [Example 597, 2-(3,6-Dichloro-2-fluoro-phenylamino)-N-(trans-4-trifluoromethyl-cyclohex-1-yl)-6-fluoro-1H-benzimidazole-5-carboxamide] |
| 100% | COc1cc2[nH]c(Nc3c(Cl)ccc(Cl)c3F)nc2cc1C(=O)Nc1ccc(Br)cc1 [Example 602, 2-(3,6-Dichloro-2-fluoro-phenylamino)-6-methoxy-N-(4-bromophenyl)-1H-benzimidazole-5-carboxamide] |
| 98% | COc1cc2[nH]c(Nc3c(Cl)cccc3Cl)nc2cc1C(=O)NCc1ncccc1OC [Example 525, 2-(2,6-Dichlorophenylamino)-6-methoxy-N-((3-methoxypyridin-2-yl)methyl)-1H-benzimidazole-5-carboxamide] |
| 99% | COc1cc2[nH]c(Nc3c(Cl)cccc3Cl)nc2cc1C(=O)Nc1ccc(C(F)(F)F)cn1 [Example 633, 2-(2,6-Dichlorophenylamino)-N-(5-trifluoromethyl-pyridin-2-yl)-6-methoxy-1H-benzimidazole-5-carboxamide] |
| 98% | COc1cc2nc(Nc3c(Cl)cccc3Cl)[nH]c2cc1C(=O)NCc1ncccc1C [Example 507, 2-(2,6-Dichlorophenylamino)-6-methoxy-N-((3-methylpyridin-2-yl)-methyl)-1H-benzimidazole-5-carboxamide] |
| 100% | Cn1c(Nc2c(Cl)cc(F)cc2Cl)nc2cc(C(=O)Nc3ccc(Br)cc3)ccc21 [Example 578, 2-(2,6-Dichloro-4-fluoro-phenylamino)-N-(4-bromo-phenyl)-1-methyl-1H-benzimidazole-5-carboxamide] |
| 98% | Cc1cc(C)c(Nc2nc3cc(C(=O)Nc4ccc(Br)cc4)ccc3n2C)c(Cl)c1 [Example 489, N-(4-Bromophenyl)-2-(2-chloro-4,6-dimethylphenylamino)-1-methyl-1H-benzimidazole-5-carboxamide] |
| 97% | CCOc1cc2c(cc1C(=O)NC1CCC(C)(C)CC1)nc(Nc1c(Cl)ccc(Cl)c1F)n2C [Example 607, 2-(3,6-Dichloro-2-fluoro-phenylamino)-6-ethoxy-N-(4,4-dimethyl-cyclohex-1-yl)-1-methyl-1H-benzimidazole-5-carboxamide] |
| 97% | O=C(N[C@H]1CC[C@H](C(F)(F)F)CC1)c1cc2nc(Nc3c(Cl)ccc(Cl)c3F)[nH]c2cc1OCC(F)(F)F [Example 592, 2-(3,6-Dichloro-2-fluoro-phenylamino)-N-(4-trans-trifluoromethyl-cyclohex-1-yl)-6-(2,2,2-trifluorethoxy)-1H-benzimidazole-5-carboxamide] |

same assay, conditions: inhibition of mPGES-1 at 10 μM; 10 µM

| % inhib. | SMILES |
| --- | --- |
| 77% | Cn1c(Nc2c(Cl)cccc2Cl)nc2cc(C(=O)NCc3ccccn3)c(F)cc21 [Example 552, 2-(2,6-Dichlorophenylamino)-6-fluoro-1-methyl-N-(pyridin-2-ylmethyl)-1H-benzimidazole-5-carboxamide] |
